In PMC10721329, “Quisinostat is a brain-penetrant radiosensitizer in glioblastoma” (JCI Insight, 2023):
Values joined by “and” are separate entries in the source; they are usually repeats but may differ in a detail not shown here. Equal entries are not always repeated.

Tested on: U87 GBM cell line
Assay: CellTiter-Glo dose-response cell viability assay
Type: cell-based, human
Description: QST (JNJ-26481585) is a second-generation hydroxamic acid harboring remarkable selectivity toward class I HDACs, with a biochemical IC50 of 0.1 nM for HDAC1 ([13]). […] To determine the cytotoxic effects of QST, we performed a dose-titration cell viability assay in 7 patient-derived GSC lines (BT145, GB187, GB239, GB282, GB71, GB82, and GB126) and 1 long-term serum-grown human GBM cell line (U87). Because GBMs display a high degree of intratumoral heterogeneity, we used GSCs derived from both primary and recurrent GBMs that harbored distinct genetic mutations or aberrations, growth rates, MGMT promoter methylation status, and gene expression profiles (Supplemental Figure 1; supplemental material available online with this article; https://doi.org/10.1172/jci.insight.167081DS1). Cell lines were treated with various concentrations of QST (10–1000 nM), and cell viability was measured 3–5 days later (Figure 1, A and B). […] Treatment with QST at the IC50 induced significant inhibition of proliferation (Ki67) and an increase in programmed cell death (cleaved caspase 3) in 2 different GSC lines (Figure 1, C and D). Additional analyses confirmed that QST induces apoptosis after short-term treatment through increased staining of the apoptotic marker annexin V (Figure 2A) and cell cycle arrest (in G2- or S-phase; Figure 2B and Supplemental Figure 1B).
GSCs were seeded in laminin-coated tissue culture–treated 96-well plates (clear bottom, white plate; Corning) at a density of 1000–5000 cells per well (cell line dependent) in GSC media. U87-MG were seeded using their normal growth conditions without laminin (10% bovine calf serum in DMEM). All cells were incubated at 37°C and allowed to adhere overnight. The next day, cells were treated with incremental concentrations of QST (Selleckchem; 0, 10, 25, 50, 100, 250, 500, and 1000 nM) diluted in media. Cells treated without QST were treated with DMSO diluted in media. Following treatment with QST, cells were grown for 3 to 5 days (cell line dependent), and cell viability was measured and quantified. All cell viability measurements were performed using the CellTiter-Glo luminescent cell viability assay (Promega) following the manufacturer’s instructions. For the sulforhodamine B colorimetric assay for cytotoxicity, the protocol was performed as described elsewhere ([33]). All cell viability results represent the mean of at least 3 biological replicates, each containing 3 technical replicates.

How did the viability at 0.01 µM (Homo sapiens, U87LN, QST 10 nM (log[nM] 1), read-out: Cell viability (fraction of DMSO control)) turn out when `Cn1cc(CNCC2CCN(c3ncc(C(=O)NO)cn3)CC2)c2ccccc21` [QST, quisinostat] was run?
The viability at 0.01 µM was 83.5%.

What about the viability at 0.025 µM (Homo sapiens, U87LN, QST 25 nM (log[nM] 1.39794), read-out: Cell viability (fraction of DMSO control)) of the same compound?
Its viability at 0.025 µM is 56.7%.

And the viability at 0.05 µM (Homo sapiens, U87LN, QST 50 nM (log[nM] 1.69897), read-out: Cell viability (fraction of DMSO control))?
The viability at 0.05 µM was 31.6%.

And the viability at 0.1 µM (Homo sapiens, U87LN, QST 100 nM (log[nM] 2), read-out: Cell viability (fraction of DMSO control))?
The viability at 0.1 µM was 21.5%.

And the viability at 0.25 µM (Homo sapiens, U87LN, QST 250 nM (log[nM] 2.39794), read-out: Cell viability (fraction of DMSO control))?
Its viability at 0.25 µM is 12.8%.

What about the viability at 0.5 µM (Homo sapiens, U87LN, QST 500 nM (log[nM] 2.69897), read-out: Cell viability (fraction of DMSO control)) of the same compound?
The viability at 0.5 µM was 9.84%.

What about the viability at 1 µM (Homo sapiens, U87LN, QST 1000 nM (log[nM] 3), read-out: Cell viability (fraction of DMSO control)) of the same compound?
Its viability at 1 µM is 8.54%.

And the IC50 (Homo sapiens, U87, 3-5 days)?
The IC50 was 28 nM.

What about the “Cell viability (fraction of DMSO control)” value (U87LN, QST 10 nM (log[nM] 1)) of the same compound?
Its value is 0.852 and 0.8354.

And the “Cell viability (fraction of DMSO control)” value (U87LN, QST 25 nM (log[nM] 1.39794))?
Its value is 0.6316 and 0.5286.

And the “Cell viability (fraction of DMSO control)” value (U87LN, QST 50 nM (log[nM] 1.69897))?
The value was 0.3812 and 0.3792.

What about the “Cell viability (fraction of DMSO control)” value (U87LN, QST 100 nM (log[nM] 2)) of the same compound?
The value was 0.2379 and 0.236.

What about the “Cell viability (fraction of DMSO control)” value (U87LN, QST 250 nM (log[nM] 2.39794)) of the same compound?
The value was 0.1476 and 0.1204.

What about the “Cell viability (fraction of DMSO control)” value (U87LN, QST 500 nM (log[nM] 2.69897)) of the same compound?
Its value is 0.1063 and 0.09789.

What about the “Cell viability (fraction of DMSO control)” value (U87LN, QST 1000 nM (log[nM] 3)) of the same compound?
The value was 0.08873 and 0.08769.
